In ChEMBL document CHEMBL3987221, “The Australian National University Dept Of Immunology Pathogen Box Compounds Screened” (2018):
The source made the active and inactive calls. How the calls were made is not given here.

Experiments:
[1] = molecular target: T1, Ferrochelatase, mitochondrial (Homo sapiens) (UniProt P22830); details: at 10 µM
T1 sequence (whole entry): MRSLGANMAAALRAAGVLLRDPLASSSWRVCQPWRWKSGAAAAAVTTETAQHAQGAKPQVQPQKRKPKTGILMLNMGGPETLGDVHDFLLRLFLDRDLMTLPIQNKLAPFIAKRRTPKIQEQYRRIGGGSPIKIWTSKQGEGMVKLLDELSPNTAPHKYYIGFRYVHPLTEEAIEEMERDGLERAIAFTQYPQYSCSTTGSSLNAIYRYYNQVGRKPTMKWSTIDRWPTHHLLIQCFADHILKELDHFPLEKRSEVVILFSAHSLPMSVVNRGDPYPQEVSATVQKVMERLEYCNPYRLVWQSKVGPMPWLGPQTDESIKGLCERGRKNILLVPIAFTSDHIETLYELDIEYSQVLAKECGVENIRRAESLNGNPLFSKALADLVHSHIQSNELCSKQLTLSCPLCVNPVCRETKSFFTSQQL
Description: Compound was evaluated for the inhibition of human FECH at 10uM

[2] = molecular target: T2, Porphobilinogen deaminase (Homo sapiens) (UniProt P08397); details: at 100 µM
T2 sequence (whole entry): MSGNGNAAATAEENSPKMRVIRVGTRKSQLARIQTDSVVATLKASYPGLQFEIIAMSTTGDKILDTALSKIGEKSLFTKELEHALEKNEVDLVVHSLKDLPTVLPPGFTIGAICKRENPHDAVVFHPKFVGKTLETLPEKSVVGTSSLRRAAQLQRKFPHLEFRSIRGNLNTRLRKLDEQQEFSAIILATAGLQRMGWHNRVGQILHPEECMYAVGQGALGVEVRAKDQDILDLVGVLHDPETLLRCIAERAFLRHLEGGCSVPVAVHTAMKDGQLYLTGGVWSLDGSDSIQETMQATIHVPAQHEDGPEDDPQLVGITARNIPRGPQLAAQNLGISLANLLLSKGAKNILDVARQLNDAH
Description: Compound was evaluated for the inhibition of human HMBS at 100uM

SMILES	inhibition [1]	inhibition [2]
c1ccc(Oc2ccc(-c3cc(N4CCOCC4)[nH]n3)cc2)cc1	inactive	inactive
Cc1cc(OCC(=O)Nc2ccc(C(C)C)cc2)n(C)c(=O)c1C#N	inactive	inactive
O=C1N(Cc2cc3ccccc3s2)CC2CN(Cc3ccccc3)CCN12 (stereo unspecified)	inactive	inactive
N=C(N)Nc1ccc(-c2ccc(-c3ccc(NC(=N)N)cc3Cl)o2)c(Cl)c1	inactive	inactive
Nc1ncnc2c1ncn2C[C@@H](O)[C@@H](O)C(=O)O	inactive	inactive
CCOc1ccc(OCC(=O)Nc2cc(C)cc(C)c2)cc1	inactive	inactive
CCCCOC(=O)Nc1cc2nc(C3CCCCC3)[nH]c2cc1N1CCCC1	inactive	inactive
CC(=O)N1CCc2cc3nc(C)cc(C)c3cc21	inactive	inactive
Cc1nn(Cc2ccccc2)c(Cl)c1C(=O)NC1CCCCCC1	inactive	inactive
CC(C)(C(=O)Nc1ccc(F)cc1)n1cc(-c2ccccc2F)cn1	inactive	inactive
COc1ccc(-c2onc(C(F)(F)F)c2-c2ccc(Cl)cc2)c(O)c1	inactive	inactive
Cc1cc(NCC(C)C)c2[nH]nc(-c3ccccc3)c2n1	inactive	inactive
O=C(Nc1ccc(C(F)(F)F)c(C(F)(F)F)c1)c1cc(Cl)ccc1O	inactive	inactive
c1coc(CNc2nc(N3CCCCC3)nc3ccccc23)c1	inactive	inactive
Cc1c[nH]c(CCNC(=O)c2cc(-c3ccc(Cl)cc3)cs2)n1	inactive	inactive
Cc1nnc(NCc2cccc(Cl)c2)c2ccccc12	inactive	inactive
COc1cccc(-n2nnnc2S(=O)(=O)Cc2ccccc2)c1	inactive	inactive
O=C(C1CCCCC1)N1CC(=O)N2CCc3ccccc3C2C1 (stereo unspecified)	inactive	inactive
COc1ccc(C2(C(=O)Nc3ccc(Br)cc3)CCCC2)cc1	inactive	inactive
Cc1noc(C)c1COc1cccc(C(=O)N=c2[nH]cccc2C)c1	inactive	inactive
CS(=O)(=O)N1CCC(CCn2nc(Cc3cccc4ccccc34)c3c(N)ncnc32)CC1	inactive	inactive
Cc1cc(OCC(=O)NCc2ccccc2)c2cc(Br)ccc2n1	inactive	inactive
CCCS(=O)(=O)N1CCC(CO)(Cc2ccccc2C(F)(F)F)CC1	inactive	inactive

SMILES	inhibition [1]	inhibition [2]
CCOc1ccc2cc(-c3nn(C(C)(C)C)c(N)c3C(N)=O)cnc2c1	inactive	inactive
CC(C)(C)C(=O)N(CCCCCCN1C[C@H](O)[C@@H](O)[C@H](O)[C@H]1CO)C1CCCCCC1	inactive	inactive
CC1=NN(c2nc3ccccc3s2)C(=O)C1Cc1cccc2ccccc12 (stereo unspecified)	inactive	inactive
Cc1cc(NC(=O)c2ccc(S(=O)(=O)N(Cc3ccccc3)C(C)C)cc2)no1	inactive	inactive
COc1ccccc1CNC(=O)c1cc(C2CC2)nc2c1cnn2C(C)C	inactive	inactive
Clc1ccc(CN2CCN(C3=NCCN3)CC2)cc1Cl	inactive	inactive
CC[C@H](CO)NCCN[C@H](CC)CO	inactive	inactive
CNc1nnc(Sc2cnn(-c3ccccc3)c(=O)c2Cl)s1	inactive	inactive
COc1ccc(C2CC(c3cccs3)=NN2C(=O)c2ccco2)cc1OC (stereo unspecified)	inactive	inactive
Cc1ccc(S(=O)(=O)n2cc(-c3ccnc(N)c3)c3cc(Br)cnc32)cc1	inactive	inactive
CCC(NC(=O)c1ccccc1NC(=O)c1ccc(C)cc1)C(=O)OC (stereo unspecified)	inactive	inactive
CC(C)(C)c1cc(C(=O)Nc2cccnc2)cc(C(=O)Nc2cccnc2)c1	inactive	inactive
c1ccc(-c2[nH]c3ccccc3c2C(c2ccccn2)N2CCCC2)cc1 (stereo unspecified)	inactive	inactive
c1ccc(Oc2ccc(-c3cc(C4CCOCC4)[nH]n3)cc2)cc1	inactive	inactive
Cc1cc(C)n(-c2ccc(NC(=O)C3CCN(Cc4cnc(C)s4)CC3)cc2)n1	inactive	inactive
Clc1ccc(-n2cc(COc3ccnc4ccccc34)nn2)cc1	inactive	inactive
CN1CCN(c2nccc3nc(-c4ccc(F)c(F)c4)[nH]c23)CC1	inactive	inactive
CCOC(=O)c1c(NC(=O)c2c(F)c(F)c(F)c(F)c2F)sc(C(N)=O)c1C	inactive	inactive
CCCCc1ccc(C(=O)Nc2nccc3ccccc23)nc1	inactive	inactive
O=C(NCCc1c[nH]c2ccccc12)c1cc2ccccc2oc1=O	inactive	inactive
CC(C)(CN)c1nc(-c2ccc(Cl)c(O)c2)c(-c2ccnc(N)n2)[nH]1	inactive	inactive
c1ccc(Oc2ccc(-c3cc(CN4CCOCC4)[nH]n3)cc2)cc1	inactive	inactive
COc1cc(C2=NCCN2)ccc1-n1cc(-c2cccc(C3=NCCN3)c2)nn1	inactive	inactive

SMILES	inhibition [1]	inhibition [2]
CC(C)(C)OC(=O)N1CCN(c2cc(-c3ccc(Oc4ccccc4)cc3)n[nH]2)CC1	inactive	inactive
O=C(NC1CC1)c1ccc(CSCc2ccccc2Cl)o1	inactive	inactive
COc1cc(NC(C)CCCN)c2ncccc2c1 (stereo unspecified)	inactive	inactive
CCCn1c(NC(=O)c2ccc3ccccc3n2)nc2ccccc21	inactive	inactive
N=C(N)c1ccc(OCCCCCOc2ccc(C(=N)N)cc2)cc1	inactive	inactive
CC(C)(C)[C@H]1CC[C@H](CC2=C(O)C(=O)c3ccccc3C2=O)CC1	inactive	inactive
Cc1noc(C)c1C(=O)N1CCCC(c2[nH]c3c(C)cccc3c2-c2ccncc2)C1 (stereo unspecified)	inactive	inactive
O=C(Nc1nc(-c2ccccn2)cs1)c1cncn1-c1ccccc1	inactive	inactive
N#Cc1nc(-c2ccccc2)oc1S(=O)(=O)c1ccc(Cl)cc1	inactive	inactive
COc1cc(CN2CCC3(C=Cc4ccccc43)CC2)cc2c1OCO2	inactive	inactive
CCOc1ccc(-c2nc(CNCCc3ccc(F)cc3)cs2)cc1	inactive	inactive
CC(C)=CCC/C(C)=C\CNCCNC1C2CC3CC(C2)CC1C3 (stereo unspecified)	inactive	inactive
O=C(NCCc1ccccc1)c1cc(-c2cccnc2)cnc1NCC1CC1	inactive	inactive
CCc1cc(=O)n(C)c(SC(C)C(=O)Nc2ccc(F)cc2)n1 (stereo unspecified)	inactive	inactive
CC(C)(C)OC(=O)N1CCN(c2nccc(-c3ccc(-c4ccc(Cl)cc4)s3)n2)CC1	inactive	inactive
Cc1nc(-c2ccccn2)nc(N2CCC(Cc3ccccc3)C2)c1Cl (stereo unspecified)	inactive	inactive
Cc1cc(C)cc(COc2ccc3c(C)c(CCC(=O)O)c(=O)oc3c2C)c1	inactive	inactive
COc1ccc(-c2cc(NC(=O)c3ccc(F)cc3Cl)ccc2OC)cc1	inactive	inactive
CCCNC(=O)N1CCC2(CC1)CC(=O)c1cc(C)ccc1O2	inactive	inactive
CCN(CC)S(=O)(=O)c1ccc(C(=O)Nc2cc(C)nn2-c2nc(C)c(C)c(=O)[nH]2)cc1	inactive	inactive
CCc1ccc(C(NCc2nc(N)nc(N(C)C)n2)C(C)C)cc1 (stereo unspecified)	inactive	inactive
CC(C)n1ncc2c(C(=O)NCC(c3cccs3)N3CCOCC3)cc(-c3ccccc3)nc21 (stereo unspecified)	inactive	inactive
